{"source": "paper PMC11253624", "about": "“Unsaturated fatty acid perturbation combats emerging triazole antifungal resistance in the human fungal pathogen Aspergillus fumigatus” (mBio, 2024)", "key": {"Aspergillus fumigatus [1]": {"tested_on": "Aspergillus fumigatus", "experiment": "FIC checkerboard synergy assay, A. fumigatus", "format": "cell-based", "conditions": "for MIC: Aspergillus fumigatus"}, "Cryptococcus neoformans": {"tested_on": "Cryptococcus neoformans", "experiment": "FIC checkerboard assay MBX-7591 and oleic acid, C. neoformans", "format": "cell-based", "description": "Single-treatment controls were completed with 50 µL of media to substitute the volume of the other compound. […] Additional untreated and media-only controls were added to the plate as described above. Incubation of the plates and MIC assessments (individual and in combination) were performed as described above. FIC calculations were done according to the established formula: ∑FIC=MIC combination compound A/MIC individual compound A + MIC combination compound B/MIC individual compound B . Synergy was considered equal or lower than 0.5, and antagonism was considered to be higher than 2. FIC scores reported represent between three and five biological replicates. All antifungal susceptibility testing was done in 96-well plates using RPMI 1640 media buffered with 165 mM of MOPS and pH 7 using NaOH. CLSI-based microbroth dilution assays were done in accordance with M27 ([49]). […] Additionally, an untreated control (100 µL of a stock of 2 × 10^3 spores/mL and 100 µL of media) and a media-only control (200 µL media) were included in the plate. The plate was covered in a Breathe-Eazy membrane to allow for uniform oxygen diffusion throughout the plate and incubated for 24 hours at 35°C (Candida spp.) or 72 hours at 35°C ± 5% CO2 (Cryptococcus neoformans)."}, "Aspergillus fumigatus [2]": {"tested_on": "Aspergillus fumigatus", "experiment": "CLSI-based microbroth dilution MIC, A. fumigatus strains", "conditions": "Aspergillus fumigatus"}, "A. fumigatus CEA10": {"tested_on": "A. fumigatus CEA10", "experiment": "Fatty acid profile of 24-hour biofilms by GC-MS", "format": "cell-based, Aspergillus fumigatus", "conditions": "CEA10 24-hour biofilm; MBX-7591 0.58 µg/mL, voriconazole 0.0625 µg/mL"}}}
{"smiles": "OC(Cn1cncn1)(Cn1cncn1)c1ccc(F)cc1F", "note": "[Fluconazole, fluconazole]", "values": [{"measurement": "MIC", "setting": "Aspergillus fumigatus [1]; strain CEA10, FLC alone, read-out: MIC Azole (FLC)", "value": "> 256", "unit": "µg/mL"}, {"measurement": "MIC Azole in combination (FLC)", "setting": "Aspergillus fumigatus [1]; strain CEA10, FLC with 0.613 µg/mL MBX-7591", "value": 16, "unit": "µg/mL"}, {"measurement": "fold increase in FLC potency", "setting": "Aspergillus fumigatus [1]; with 0.613 µg/mL MBX-7591", "value": "> 16", "unit": "fold"}]}
{"smiles": "CCCCCCCC/C=C\\CCCCCCCC(=O)O", "note": "[Oleic acid, oleic acid]", "values": [{"measurement": "MIC", "setting": "Aspergillus fumigatus [1]; CEA10, oleic acid alone, read-out: MIC OA", "value": "> 500", "unit": "µg/mL"}, {"measurement": "MIC OA combination", "setting": "Aspergillus fumigatus [1]; CEA10, first line of Table S8 (MBX-7591 9.81 μg/ml)", "value": 7.81, "unit": "µg/mL"}, {"measurement": "MIC OA combination", "setting": "Aspergillus fumigatus [1]; CEA10, second line of Table S8 (MBX-7591 19.63 μg/ml)", "value": 15.63, "unit": "µg/mL"}, {"measurement": "MIC", "setting": "Cryptococcus neoformans; Cryptococcus neoformans, H99, oleic acid alone, 5% CO2", "value": "> 500", "unit": "µg/mL"}, {"measurement": "MIC OA combination", "setting": "Cryptococcus neoformans; H99, 5% CO2", "value": 31.25, "unit": "µg/mL"}]}
{"smiles": "C[C@@H](c1ncncc1F)[C@](O)(Cn1cncn1)c1ccc(F)cc1F", "note": "[Voriconazole]", "values": [{"measurement": "MIC", "setting": "Aspergillus fumigatus [1]; read-out: MIC VCZ, strain 08-19-02-61 (TR34/L98H), alone", "value": 2, "unit": "µg/mL"}, {"measurement": "MIC", "setting": "Aspergillus fumigatus [1]; read-out: MIC VCZ, strain 08-31-08-91 (TR34/L98H), alone", "value": 4, "unit": "µg/mL"}, {"measurement": "MIC", "setting": "Aspergillus fumigatus [1]; read-out: MIC VCZ, strain F11628 (G138C), alone", "value": "> 8", "unit": "µg/mL"}, {"measurement": "MIC", "setting": "Aspergillus fumigatus [1]; read-out: MIC VCZ, strain F15390 (caf8) (M220T), alone", "value": 1, "unit": "µg/mL"}, {"measurement": "MIC", "setting": "Aspergillus fumigatus [1]; strain CEA10, alone, read-out: MIC VCZ", "value": "0.25 to 0.5", "unit": "µg/mL"}, {"measurement": "MIC VCZ in combination", "setting": "Aspergillus fumigatus [1]; strain 08-19-02-61, with MBX-7591", "value": 0.5, "unit": "µg/mL"}, {"measurement": "MIC VCZ in combination", "setting": "Aspergillus fumigatus [1]; strain 08-31-08-91, with MBX-7591", "value": 1, "unit": "µg/mL"}, {"measurement": "MIC VCZ in combination", "setting": "Aspergillus fumigatus [1]; strain CEA10, with MBX-7591, listed as VCZ", "value": "0.0625 to 0.125", "unit": "µg/mL"}, {"measurement": "MIC VCZ", "setting": "Aspergillus fumigatus [1]; strain F11628 (G138C), alone, listed as VCZ", "value": ">8", "unit": "µg/mL"}, {"measurement": "MIC VCZ in combination", "setting": "Aspergillus fumigatus [1]; strain F11628, with MBX-7591", "value": "0.5 to 1", "unit": "µg/mL"}, {"measurement": "MIC VCZ in combination", "setting": "Aspergillus fumigatus [1]; strain F15390 (caf8), with MBX-7591", "value": 0.25, "unit": "µg/mL"}, {"measurement": "increase in VCZ potency in combination", "setting": "Aspergillus fumigatus [1]; with 0.613 µg/mL MBX-7591", "value": "four to eight times more potent"}, {"measurement": "MIC", "setting": "Aspergillus fumigatus [2]; ATCC46455, read-out: Voriconazole MIC", "value": "0.25 to 0.5", "unit": "µg/mL"}, {"measurement": "MIC", "setting": "Aspergillus fumigatus [2]; read-out: Voriconazole MIC, strain 08-19-02-10 (TR34/L98H)", "value": 2, "unit": "µg/mL"}, {"measurement": "MIC", "setting": "Aspergillus fumigatus [2]; read-out: Voriconazole MIC, strain 08-19-02-46 (TR34/L98H)", "value": 2, "unit": "µg/mL"}, {"measurement": "MIC", "setting": "Aspergillus fumigatus [2]; read-out: Voriconazole MIC, strain 08-19-02-61 (TR34/L98H), Table S6", "value": 1, "unit": "µg/mL"}, {"measurement": "MIC", "setting": "Aspergillus fumigatus [2]; read-out: Voriconazole MIC, strain 08-31-08-91 (TR34/L98H), Table S6", "value": 4, "unit": "µg/mL"}, {"measurement": "MIC", "setting": "Aspergillus fumigatus [2]; read-out: Voriconazole MIC, strain 10-19-02-27 (TR34/L98H)", "value": 4, "unit": "µg/mL"}, {"measurement": "MIC", "setting": "Aspergillus fumigatus [2]; read-out: Voriconazole MIC, strain F11628 (G138C), Table S6", "value": "> 8", "unit": "µg/mL"}, {"measurement": "MIC", "setting": "Aspergillus fumigatus [2]; read-out: Voriconazole MIC, strain F15390 (M220T), Table S6", "value": 1, "unit": "µg/mL"}, {"measurement": "C14:0 relative percentage of fatty acids", "setting": "A. fumigatus CEA10", "value": "0.11 ± 0.0046"}, {"measurement": "C15:0 relative percentage of fatty acids", "setting": "A. fumigatus CEA10", "value": "0.39 ± 0.11"}, {"measurement": "C16:0 (palmitic acid) relative percentage of fatty acids", "setting": "A. fumigatus CEA10", "value": "18.71 ± 0.25"}, {"measurement": "C16:1n7 relative percentage of fatty acids", "setting": "A. fumigatus CEA10", "value": "0.38 ± 0.041"}, {"measurement": "C17a relative percentage of fatty acids", "setting": "A. fumigatus CEA10", "value": "0.18 ± 0.15"}, {"measurement": "C18:0 (stearic acid) relative percentage of fatty acids", "setting": "A. fumigatus CEA10", "value": "3.06 ± 0.26"}, {"measurement": "C18:1n7 relative percentage of fatty acids", "setting": "A. fumigatus CEA10", "value": "0.00 ± 0"}, {"measurement": "C18:1n9 (oleic acid) relative percentage of fatty acids", "setting": "A. fumigatus CEA10", "value": "31.26 ± 1.67"}, {"measurement": "C18:2n6 relative percentage of fatty acids", "setting": "A. fumigatus CEA10", "value": "45.91 ± 1.99"}]}
